The values below come from the NIST ThermoML archive (doi:10.1021/je500881x).

Each structure is given as a SMILES string. ± gives the expanded uncertainty stated by the source.

This data set is described as follows: refractive index (Na D-line) (dimensionless); wn = mass fraction of the nth substance listed. The note with it: 288.15 K, 101 kPa, Liquid, Standard Abbe refractometry.

In the case of `[Br-].[Br-].[Ca+2]` [calcium bromide] + O, the refractive index (w1 = 0.5794) worked out at 1.4892 ± 0.0004. For the compound `[Br-].[Na+]` [sodium bromide] + O, the refractive index (w1 = 0.4704) came out at 1.4196 ± 0.0004.
